Consider four molecules from article PMC3126109 (Biochemistry, 2010).

What is called Kd is the concentration at which binding is half-saturated. A lower Kd goes with a tighter complex. A word on the Km: it is the concentration of substrate that gives half-maximal velocity. Usually stoichiometry N stands for a count of units in the complex or per binding partner.

Data set [1] deals with T1, Pyrococcus horikoshii biotin protein ligase (PhBPL) (Pyrococcus horikoshii, UniProt O57883).
T1 sequence (O57883 1-235): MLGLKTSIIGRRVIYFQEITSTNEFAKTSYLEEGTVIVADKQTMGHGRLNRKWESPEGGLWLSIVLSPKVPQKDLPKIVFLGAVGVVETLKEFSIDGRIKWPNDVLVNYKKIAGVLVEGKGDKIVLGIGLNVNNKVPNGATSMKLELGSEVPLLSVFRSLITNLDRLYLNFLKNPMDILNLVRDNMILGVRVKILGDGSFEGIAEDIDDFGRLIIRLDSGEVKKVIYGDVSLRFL
The data set is described as follows: Steady state fluorescence titration of PhBPL with ligand. The following applies: for blue shift of emission maximum / quenching of intrinsic protein fluorescence: saturating ligand. In kind it is binding.

Another data set deals with E. coli BPL. Particulars: bio-5′-AMP synthesis; cited from earlier work.
The target of data set [2] is T1, Pyrococcus horikoshii biotin protein ligase (PhBPL). The data set is described as follows: Isothermal titration calorimetry of PhBPL with biotin. Format: binding. For orientation: Isothermal titration calorimetry measures the heat released or taken up as one component is titrated into another.
The data set “AUC” deals with the molecule itself. The data set is described as follows: AUC.
Setting [3] is: KD, 20°C, Standard Buffer pH 7.5.
The mark [4] stands for this setting: KD, 30°C, Standard Buffer pH 7.5.
[5] abbreviates: KD, 40°C, Standard Buffer pH 7.5.
Where [6] appears, read: KD, 50°C, Standard Buffer pH 7.5.

Values joined by “and” are separate entries in the source; they are usually repeats but may differ in a detail not shown here. Equal entries are not always repeated.

Regarding `Nc1ncnc2c1ncn2[C@@H]1O[C@H](COP(=O)(O)OP(=O)(O)OP(=O)(O)O)[C@@H](O)[C@H]1O` [ATP, adenosine 5′-triphosphate], the Kd in data set [1] (setting [3]) was 240 µM; in data set [1] (setting [4]), 290 µM; in data set [1] (setting [5]) it was 300 µM; in data set [1] (setting [6]), 430 µM; in data set [1] (KD, temperature range of 20-50°C), 200 to 400 µM. The “blue shift of emission maximum” value in data set [1] is given as “approximately 5 nm”. The “quenching of intrinsic protein fluorescence” value in data set [1] turned out to be 60%. Moreover, the “binding enthalpy (van’t Hoff analysis)” value in data set [1] (titrations from 20 to 50°C) was -3.5 ± 1.5 kcal/mol. In addition, the Km in the data set on E. coli BPL is about 3000 µM.

For the molecule `O=C(O)CCCC[C@@H]1SC[C@@H]2NC(=O)N[C@@H]21` [Biotin, d-biotin], the Kd was determined as 0.12 µM in data set [1] (KD, 10°C, Standard Buffer pH 7.5); 0.2 µM in data set [1] (setting [3]); 0.2 µM in data set [1] (setting [4]); 0.51 µM in data set [1] (setting [5]); 0.39 µM in data set [1] (setting [6]). Also, in data set [1] (from 10°C to 50°C), the “increase of equilibrium dissociation constant with temperature” value is “approximately four fold”. For the same molecule, in data set [1], the “blue shift of emission maximum” value is given as “approximately 5 nm”. In addition, in data set [1], the “quenching of intrinsic protein fluorescence” value is reported as 30%. In addition, the “enthalpy of binding (van’t Hoff analysis)” value in data set [1] (titrations from 10 to 50°C) is -4.4 ± 0.2 kcal/mol and -4.4 kcal/mol. Moreover, the “equilibrium association constant by ITC” value in data set [2] (20°C, direct titration) was “identical to that measured by fluorescence titrations”. In data set [2] (temperature-dependence of binding by ITC), this molecule showed a heat capacity change of 5±14 cal/mole·K.

Regarding `Nc1ncnc2c1ncn2C1OC(COP(=O)(O)CP(=O)(O)OP(=O)(O)O)C(O)C1O` (stereo not drawn) [AMPCPP, α,β-methyleneadenosine 5′-triphosphate], the Kd in data set [1] (20°C, Standard Buffer pH 7.5) turned out to be 150 µM; in data set [1] (20°C, titrated into PhBPL saturated with biotin), 140 µM. Also, the “ΔG°” value in data set [1] (20°C, titrated into PhBPL saturated with biotin, ΔG°= RTlnKD) is -5.1 ± 0.1 kcal/mol.

B1: Pyrococcus horikoshii Biotin Protein Ligase (enzyme)
chain: T1 sequence (O57883 1-235)
With B1, in the data set “AUC”, the “stoichiometry N” value came out at 2.
